Test results published in ChEMBL document CHEMBL1201862, “PubChem BioAssay data set” (2004).
The source made the active and inactive calls.

Key:
[1] = Trypanosoma cruzi growth suppression in host cells – NIH3T3 host cells, beta-gal luminescence, confirmation (AID 2044); type: functional, cell-based;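 further: intracellular parasites grown in NIH/3T3 mouse fibroblasts as host cells; luminescent beta-galactosidase reporter signal from transgenic T. cruzi replicating inside host cells; inhibitors lower the luminescence signal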
[2] = target: T1, Sentrin-specific protease 7 (Homo sapiens, UniProt Q9BQF6); type: functional;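 further: Luminescence-based dose-response confirmation of ultra-high-throughput screening hits, measuring inhibition of SENP7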
T1 sequence (Q9BQF6 whole entry): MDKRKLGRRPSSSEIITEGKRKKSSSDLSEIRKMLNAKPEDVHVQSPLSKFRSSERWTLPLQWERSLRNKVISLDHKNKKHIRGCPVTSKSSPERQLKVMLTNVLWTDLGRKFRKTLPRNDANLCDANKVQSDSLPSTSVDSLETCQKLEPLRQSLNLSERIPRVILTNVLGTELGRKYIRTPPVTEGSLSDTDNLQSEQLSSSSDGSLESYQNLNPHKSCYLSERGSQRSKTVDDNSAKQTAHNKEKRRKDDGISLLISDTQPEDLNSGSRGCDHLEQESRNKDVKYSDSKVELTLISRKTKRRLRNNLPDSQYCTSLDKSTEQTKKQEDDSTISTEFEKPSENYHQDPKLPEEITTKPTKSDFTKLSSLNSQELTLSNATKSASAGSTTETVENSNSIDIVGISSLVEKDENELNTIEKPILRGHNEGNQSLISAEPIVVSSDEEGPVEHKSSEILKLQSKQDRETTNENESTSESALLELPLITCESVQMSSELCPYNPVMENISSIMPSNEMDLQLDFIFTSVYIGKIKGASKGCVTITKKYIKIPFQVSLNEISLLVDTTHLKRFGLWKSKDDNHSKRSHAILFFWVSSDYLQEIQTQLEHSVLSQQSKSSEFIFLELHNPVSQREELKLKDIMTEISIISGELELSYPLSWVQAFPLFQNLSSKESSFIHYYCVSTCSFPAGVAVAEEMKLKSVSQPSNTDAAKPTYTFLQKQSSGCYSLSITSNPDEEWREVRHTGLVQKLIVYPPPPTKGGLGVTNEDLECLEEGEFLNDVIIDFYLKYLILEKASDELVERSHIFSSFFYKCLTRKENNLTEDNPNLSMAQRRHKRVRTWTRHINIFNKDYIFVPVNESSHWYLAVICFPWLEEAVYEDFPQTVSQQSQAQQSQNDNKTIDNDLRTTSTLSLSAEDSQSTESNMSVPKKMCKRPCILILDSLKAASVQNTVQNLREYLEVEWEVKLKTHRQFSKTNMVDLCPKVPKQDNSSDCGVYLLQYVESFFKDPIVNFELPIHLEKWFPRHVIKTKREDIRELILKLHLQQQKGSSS

IC50 [2]	Compound	EC50 [1]
	COC(=O)c1cc(C)nc2c1C(=O)C(=O)C=C2N1CCOCC1	2.34 µM (active)
3.27 µM (active)	CCOC(=O)C1=C(C)OC2(O)c3ccccc3C(=O)C12O (configuration not stated)	
